{"source": "patent US20040229791A1", "about": "“Compositions and methods of modulating TGF-beta activity by fatty acids” (priority 2002, published 2004)", "key": {"native α2M": {"molecular_target": "T1, native α2M (Homo sapiens, UniProt P01023)", "T1 construct": "was purified from pooled citrate-treate human plasma; from tissue; host or cells: pooled citrate-treated human plasma", "T1 sequence (P01023 24-1474)": "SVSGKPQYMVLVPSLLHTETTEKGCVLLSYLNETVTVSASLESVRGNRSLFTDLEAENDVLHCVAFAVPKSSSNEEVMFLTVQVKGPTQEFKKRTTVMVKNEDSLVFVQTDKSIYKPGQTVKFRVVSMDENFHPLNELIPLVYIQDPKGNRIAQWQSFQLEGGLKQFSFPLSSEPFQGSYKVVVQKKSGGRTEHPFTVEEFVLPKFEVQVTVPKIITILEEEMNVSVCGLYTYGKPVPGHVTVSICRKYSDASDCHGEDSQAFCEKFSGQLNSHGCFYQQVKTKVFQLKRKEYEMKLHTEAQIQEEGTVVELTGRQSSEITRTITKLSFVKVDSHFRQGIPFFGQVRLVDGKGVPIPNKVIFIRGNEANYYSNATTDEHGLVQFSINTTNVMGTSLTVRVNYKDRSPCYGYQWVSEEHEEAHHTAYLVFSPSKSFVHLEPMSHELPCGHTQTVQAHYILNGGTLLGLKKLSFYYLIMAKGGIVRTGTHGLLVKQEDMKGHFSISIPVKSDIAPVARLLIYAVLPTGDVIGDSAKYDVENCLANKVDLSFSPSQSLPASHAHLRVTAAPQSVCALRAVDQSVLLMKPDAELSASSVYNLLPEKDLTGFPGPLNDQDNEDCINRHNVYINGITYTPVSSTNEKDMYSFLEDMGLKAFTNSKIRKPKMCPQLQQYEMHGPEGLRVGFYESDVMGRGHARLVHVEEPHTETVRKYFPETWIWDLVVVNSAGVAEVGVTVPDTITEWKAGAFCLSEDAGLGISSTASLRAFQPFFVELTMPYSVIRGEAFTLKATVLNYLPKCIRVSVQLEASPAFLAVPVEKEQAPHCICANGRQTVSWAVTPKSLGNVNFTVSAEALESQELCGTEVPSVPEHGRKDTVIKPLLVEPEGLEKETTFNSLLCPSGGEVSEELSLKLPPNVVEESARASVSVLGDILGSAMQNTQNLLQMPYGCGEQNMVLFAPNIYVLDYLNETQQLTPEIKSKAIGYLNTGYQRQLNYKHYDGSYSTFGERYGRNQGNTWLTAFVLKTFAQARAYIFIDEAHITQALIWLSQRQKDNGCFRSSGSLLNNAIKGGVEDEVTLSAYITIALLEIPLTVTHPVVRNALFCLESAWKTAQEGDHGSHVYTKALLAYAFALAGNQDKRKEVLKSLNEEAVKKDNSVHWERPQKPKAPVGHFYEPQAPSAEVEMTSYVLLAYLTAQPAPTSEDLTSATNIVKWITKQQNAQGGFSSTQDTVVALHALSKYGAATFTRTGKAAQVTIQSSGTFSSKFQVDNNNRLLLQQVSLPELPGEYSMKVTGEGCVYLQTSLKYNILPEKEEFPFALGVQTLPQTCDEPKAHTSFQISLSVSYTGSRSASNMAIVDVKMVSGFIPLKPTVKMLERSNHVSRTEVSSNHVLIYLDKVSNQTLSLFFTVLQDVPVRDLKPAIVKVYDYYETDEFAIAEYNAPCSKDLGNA", "test": "Gel filtration of 3H-arachidonic acid with native α2M", "format": "binding", "details": "100 μM 3H-arachidonic acid", "experimental": "The interaction of ^3H-arachidonic acid and α2M* was determined using gel filtration. ^3H-arachidonic acid was incubated with native ? 2M or ? 2M*, which was activated by methylamine. After incubation at room temperature for 30 min, the reaction mixture was subjected to gel filtration chromatography on Sephacryl® S-300 HR. The ^3H-arachidonic acid radioactivity and concentrations of. α2M* or native ? 2M in the eluents were determined by scintillation counting and 5% SDS-PAGE followed by Coomassie blue staining, respectively. […] The small peak, which appeared in the flow-through fractions, contained the ^3H-arachidonic acid- ? 2M* complex and free ? 2M*, which was identified by Coomassie blue staining (FIG. 5, inset). The subsequent large peak, which appeared in the column bed volume fractions, was identified as free ^3H-arachidonic acid.\nGel Filtration of ^3H-arachidonic acid-α2M* Complexes—The reaction mixture contained 100 μM ^3H-arachidonic acid with or without 10 μg of ? 2M*, which was activated by methylamine and plasmin as described previously (12,22), or native ? […] The column was then eluted with the same phosphate buffer and the fractional volume was ˜1 ml, 20 μl of which was counted with a scintillation counter and an another 20 μl of which was analyzed by SDS-PAGE followed by Coomassie blue staining (to locate fractions containing. α2M* or native ? 2M)."}, "TGF-β1-α2M* complex": {"molecular_target": "T2, TGF-β1-α2M* complex (Homo sapiens, UniProt P01023)", "T2 construct": "was purified from pooled citrate-treate human plasma; from tissue; host or cells: pooled citrate-treated human plasma", "T2 sequence (P01023 24-1474)": "T1 sequence (P01023 24-1474)", "test": "Inhibition of 125I-TGF-β1 and α2M* complex formation (5% non-denaturing PAGE, autoradiography)", "format": "binding", "details": "~1 nM 125I-TGF-β1, 10 μg α2M* in 0.05 ml, 30 min room temperature, non-denaturing PAGE; read-out: IC50 for inhibiting complex formation between TGF-β1 and α2M*", "experimental": "Saturated and unsaturated fatty acids are present in plasma and tissues (25,26). The effects of various concentrations of saturated fatty acids on the formation of complexes between ^125I-TGF ? β1 and ? 2M* were examined. ^125I-TGF- ? 1 (1 nM) was incubated μg/ml) in the presence of various concentrations of n-caprylic acid ([…]), lauric acid (12 carbon atoms), myristic acid (14 carbon atoms), palmitic acid (16 carbon atoms) and stearic acid (18 carbon atoms). After 30 min at room temperature, the reaction mixture was analyzed by 5% non-denaturing PAGE and autoradiography, a standard method form determining complex formation between TGF-β and α2M* (12). […] At 100 μM, it inhibited 20% of the complex formation between TGF ? β1 and α2M*. Esterification consistently abolished the inhibitory activities of the fatty acids.\nComplex formation of ^125I-TGF-β and ? 2M*—The reaction mixture contained 10 μg of . α2M*, ˜1 nM of ^125I-TGF- ? 1, ^125I-TGF ? β2 or ^125I-TGF ? acids (dissolved in 100% ethanol) in 0.05 ml of 50 mM HEPES-NaOH buffer, pH 7.4. The final concentration of ethanol in the reaction mixture was 0.5%. These fatty acids and fatty acid derivatives were soluble under the experimental conditions. After 30 min at room temperature, the complex formation of ^125I-TGF- ? and. α2M* was determined by 5% non-denaturing polyacrylamide gel electrophoresis (PAGE) or by 7.5% SDS-PAGE following cross-linking by 0.6 mM DSS. After electrophoresis, the gel was stained with Coomassie blue and analyzed by autoradiography. The ^125I-TGF- ? - ? 2M* complex which co-migrated with free ? 2M* was quantified using a PhosphoImager (Fuji)."}}}
{"smiles": "CCCCC/C=C\\C/C=C\\C/C=C\\C/C=C\\CCCC(=O)O", "note": "[arachidonic acid]", "values": [{"measurement": "complex formation with native α2M", "setting": "native α2M", "value": "no complex formation"}, {"measurement": "IC50", "setting": "TGF-β1-α2M* complex", "value": "7.8 ± 1.4", "unit": "µM"}]}
